Laboratory results from paper PMC9098913, “In vitro reconstitution of Escherichia coli divisome activation” (Nature Communications, 2022).
Like-named read-outs stand apart in the source and are kept apart here.

What was measured:
FtsZ [1] = conditions: His-tagged FtsA
Experimental: (§1) Co-treadmilling of FtsA with FtsZ relies on the dynamic exchange of FtsA on the membrane. […] To investigate the respective contributions of membrane binding kinetics and FtsA self-interaction on the colocalization dynamics with FtsZ, we wanted to create variants of the two FtsA proteins that are permanently attached to the membrane. […] Accordingly, in these experiments the proteins only differ in their tendency to form oligomers.
(§2) To study colocalization of His-tagged variants of FtsA, 0.5–1 µM of Cy5 labelled His-tagged FtsAs were added to the chamber, incubated for 20 min and washed 6x with reaction buffer. […] To control the density of membrane-bound FtsA, SUVs without and with Tris-NTA lipids were mixed to obtain the respective Tris-NTA concentrations. To perform FRET/FRAP experiments, equimolar concentrations of Cy3 and Cy5 labelled His-tagged FtsAs (total 0.5–1 µM) or His-SUMO-Cys were added to a chamber and treated as above. […] FRAP experiments were performed as described before.
Treadmilling dynamics, were quantified using an automated image analysis protocol previously developed by our group. To visualize colocalization of the co-treadmilling FtsZ & FtsA filaments, we used dual-colour videos obtained at an acquisition rate of one frame per 2 s. The two channels were aligned using FIJI’s 3TP align plugin. Both channels were then subjected to the image subtraction protocol and colocalization was measured as described above.

FtsZ [2] = conditions: His-tagged FtsA; remark: listed apart in the source
Experimental: as §1, §2
Time-lapse videos were first intensity-corrected and contrast-enhanced to avoid bleaching effects and simplify subsequent analysis. To remove contributions of X–Y drift, the videos were processed with the Linear Stack Alignment with SIFT plugin. Proper alignment was checked with the 3TP align plugin (J. A. Parker; Beth Israel Deaconess Medical Center, Boston). Subsequently, regions of interest (ROIs) in the center of the stacks were chosen for colocalization analysis. The Pearson’s correlation coefficient (PCC) was quantified with the Image CorrelationJ 1o plugin. To extract information about the relative ratio of FtsZ/FtsA molecules (slope of linear regression), we also used the Image CorrelationJ 1o plugin. As an output, the plugin provides a scatterplot of FtsZ vs FtsA intensities, to which we fitted a linear slope y=k⋅x+d , where k is the slope and d the offset. The slope was used as an estimate for the ratio of FtsA molecules below FtsZ filaments.

[3] = Membrane off-binding rate (koff) of FtsA from FRAP
Excerpt: We could also use the data from these bleaching experiments to quantify the membrane-binding kinetics and diffusion of membrane-bound proteins by analysing the change of the fluorescence profile during recovery.
Equimolar concentrations of Cy3- and Cy5-labelled FtsA, supplemented with 20% unlabelled FtsA were used to study FRET and FRAP. Five pre-bleach frames were acquired, followed by acceptor photobleaching of a rectangular ROI with 40% 641 nm laser power and a dwell size of 1 µs/pixel, 75% overlapping lines. The recovery of the signal or the increase in donor intensity were measured with either two frames or one frame per second.
Bleaching the acceptor dye leads to an increase in the donor intensity, which can be used to quantify the Foerster Resonance energy transfer (FRET)[48]. FRET efficiency was quantified with E%=Ipost/Ipost+Ipre⋅100 , where Ipost is the intensity of the […] and Ipre is the […]. […] To extract the contribution of both processes, we adjusted a routine recently published by Gerganova et al.[33]. In short, the code provides the contribution of both modes of recovery by analysing the shape of the fluorescence recovery profile. […] Contribution of diffusion leads to a change of the slope of the outer borders of the bleached region (S4h right). Thus, by measuring the change of the slope of the border recovery, diffusion and simple on/off binding can be distinguished. We developed “FRAPdiff”, a graphical user interface, which uses the original fit routine by David Rutkowski. It can be used directly on.tiff movies with annotated bleach regions as ImageJ ROIs. In addition, we added optional bleach correction, user selectable projection axis (x or y), and optional mirroring of the recovery profiles, if bleaching was not symmetric. The original fit routine for estimating the recovery and diffusion dynamics can be found at https://github.com/davidmrutkowski/1DReflectingDiffusion. FRAPdiff is available at 10.5281/zenodo.6400639[49] under the GPLv3 open-source license.

[4] = 0.60% Tris NTA, Exp. 1 (statistical analysis)
[5] = 0.60% Tris NTA, Exp. 2 (statistical analysis)
[6] = 0.80% Tris NTA, Exp. 1 (statistical analysis)
[7] = 0.80% Tris NTA, Exp. 3 (statistical analysis)
[8] = 1.00% Tris NTA, Exp. 1 (statistical analysis)
[9] = 1.00% Tris NTA, Exp. 2 (statistical analysis)
[10] = 1.00% Tris NTA, Exp. 3 (statistical analysis)
[11] = 2.00% Tris NTA, Exp. 1 (statistical analysis)
[12] = 2.00% Tris NTA, Exp. 2 (statistical analysis)
[13] = 2.00% Tris NTA, Exp. 3 (statistical analysis)
[14] = […] Tris NTA, Exp. 1 (statistical analysis)
[15] = […] Tris NTA, Exp. 2 (statistical analysis)
[16] = […] Tris NTA, Exp. 3 (statistical analysis)

In the case of “FtsA WT: wild-type E. coli actin-homologue FtsA, membrane anchor of FtsZ”, the “Differential PCC” value (FtsZ [1]; [4]) is reported as 0.51, the “Differential PCC” value (FtsZ [1]; [5]) is reported as 0.47 and the “Differential PCC, Mean” value (FtsZ [1]; 0.60% Tris NTA, n = 2 (WT), 3 (R286W), sd 0.02, 0.057, p-value 0.67) is reported as 0.49. The “Differential PCC” value (FtsZ [1]; [6]) was 0.49, the “Differential PCC” value (FtsZ [1]; [7]) was 0.47 and the “Differential PCC, Mean” value (FtsZ [1]; 0.80% Tris NTA, n = 3, 3, sd 0.05 (WT), 0.0749 (R286W), p-value 0.13) was 0.45. For the same substance, the “Differential PCC” value (FtsZ [1]; [8]) was 0.49, the “Differential PCC” value (FtsZ [1]; [9]) was 0.28 and the “Differential PCC” value (FtsZ [1]; [10]) was 0.23. For the same substance, the “Differential PCC, Mean” value (FtsZ [1]; 1.00% Tris NTA, n = 3, 3, sd 0.12 (WT), 0.0377 (R286W), p-value 5.89E-02) was 0.33, the “Differential PCC” value (FtsZ [1]; [11]) was 0.06 and the “Differential PCC” value (FtsZ [1]; [12]) was 0.14. For the same substance, the “Differential PCC” value (FtsZ [1]; [13]) was 0.0238, the “Differential PCC, Mean” value (FtsZ [1]; 2.00% Tris NTA, n = 3, 3, sd 0.0469 (WT), 0.04 (R286W), p-value 2.27E-03) was 0.0739 and the “Differential PCC” value (FtsZ [1]; [14]) was 0.05. For the same substance, the “Differential PCC” value (FtsZ [1]; [15]) was 0.035, the “Differential PCC” value (FtsZ [1]; [16]) was 0.12 and the “Differential PCC, Mean” value (FtsZ [1]; […] Tris NTA, n = 3, 3, sd 0.0371 (WT), 0.02 (R286W), p-value 5.70E-04) was 0.07. The PCC (FtsZ [2]; [4]) was 0.58, the PCC (FtsZ [2]; [5]) was 0.73 and the “PCC, Mean” value (FtsZ [2]; 0.60% Tris NTA, n = 2 (WT), 3 (R286W), sd 0.07, 0.08, p-value 0.39) was 0.65. It also gave a PCC (FtsZ [2]; [6]) of 0.66, a PCC (FtsZ [2]; 0.80% Tris NTA, Exp. 2 (statistical analysis)) of 0.70 and a PCC (FtsZ [2]; [7]) of 0.68. The “PCC, Mean” value (FtsZ [2]; 0.80% Tris NTA, n = 3, 3, sd 0.0141 (WT), 0.0648 (R286W), p-value 0.61) was 0.68, the PCC (FtsZ [2]; [8]) was 0.53 and the PCC (FtsZ [2]; [9]) was 0.60. For the same substance, the PCC (FtsZ [2]; [10]) was 0.73, the PCC (FtsZ [2]; 1.00% Tris NTA, Exp. 4 (statistical analysis)) was 0.53 and the “PCC, Mean” value (FtsZ [2]; 1.00% Tris NTA, n = 4 (WT), 3 (R286W), sd 0.08, 0.0316, p-value 6.25E-02) was 0.60. It also gave a PCC (FtsZ [2]; [11]) of 0.12, a PCC (FtsZ [2]; [12]) of 0.14 and a PCC (FtsZ [2]; [13]) of 0.16. The “PCC, Mean” value (FtsZ [2]; 2.00% Tris NTA, n = 3, 3, sd 0.0143 (WT), 0.04 (R286W), p-value 1.59E-04) was 0.14, the PCC (FtsZ [2]; [14]) was 0.16 and the PCC (FtsZ [2]; [15]) was 0.0429. For the same substance, the PCC (FtsZ [2]; [16]) was 0.18, the “PCC, Mean” value (FtsZ [2]; […] Tris NTA, n = 3, 3, sd 0.06 (WT), 0.02 (R286W), p-value 3.86E-04) was 0.13 and the “Off binding rate, mean” value ([3]; 0.1 µM FtsA + FtsN&Z) was 0.018 s. For the same substance, the “Off binding rate, mean” value ([3]; 0.1 µM FtsA + FtsN) was 0.032 s, the “Off binding rate, mean” value ([3]; 0.1 µM FtsA + FtsZ) was 0.0428 s and the “Off binding rate, mean” value ([3]; 0.1 µM FtsA alone) was 0.0544 s. For the same substance, the “Off binding rate, mean” value ([3]; 0.2 µM FtsA + FtsN&Z) was 0.0128 s, the “Off binding rate, mean” value ([3]; 0.2 µM FtsA + FtsN) was 0.026 s and the “Off binding rate, mean” value ([3]; 0.2 µM FtsA + FtsZ) was 0.0502 s. The “Off binding rate, mean” value ([3]; 0.2 µM FtsA alone) was 0.0443 s, the “Off binding rate, mean” value ([3]; 0.4 µM FtsA + FtsN&Z) was 0.0174 s and the “Off binding rate, mean” value ([3]; 0.4 µM FtsA + FtsN) was 0.0196 s. For the same substance, the “Off binding rate, mean” value ([3]; 0.4 µM FtsA + FtsZ) was 0.0502 s, the “Off binding rate, mean” value ([3]; 0.4 µM FtsA alone) was 0.0375 s and the “membrane exchange (off-rate)” value ([3]; 0.4 µM FtsA, p-value 6.73 × 10^−6) was 0.04 ± 0.01 s⁻¹. The “Off binding rate, mean” value ([3]; 0.8 µM FtsA + FtsN&Z) was 0.0278 s, the “Off binding rate, mean” value ([3]; 0.8 µM FtsA + FtsN) was 0.0277 s and the “Off binding rate, mean” value ([3]; 0.8 µM FtsA + FtsZ) was 0.0562 s. For the same substance, the “Off binding rate, mean” value ([3]; 0.8 µM FtsA alone) was 0.0396 s, the Off binding rate ([3]; Fig. S3i/S3j, 0.10 µM FtsA, replicate 1) was 0.0471 s⁻¹ and the Off binding rate ([3]; Fig. S3i/S3j, 0.10 µM FtsA, replicate 2) was 0.024 s⁻¹. For the same substance, the Off binding rate ([3]; Fig. S3i/S3j, 0.10 µM FtsA, replicate 3) was 0.0306 s⁻¹, the Off binding rate ([3]; Fig. S3i/S3j, 0.10 µM FtsA, replicate 4) was 0.0374 s⁻¹ and the Off binding rate ([3]; Fig. S3i/S3j, 0.10 µM FtsA, summary value) was 0.0544 s⁻¹. For the same substance, the Off binding rate ([3]; Fig. S3i/S3j, 0.20 µM FtsA, summary value) was 0.0443 s⁻¹, the Off binding rate ([3]; Fig. S3i/S3j, 0.40 µM FtsA, summary value) was 0.0375 s⁻¹ and the Off binding rate ([3]; Fig. S3i/S3j, 0.80 µM FtsA, summary value) was 0.0396 s⁻¹. The Off binding rate ([3]; Fig. S3m, AMP PNP, 0.10 µM FtsA, replicate 1) was 0.0505 s⁻¹, the Off binding rate ([3]; Fig. S3m, AMP PNP, 0.10 µM FtsA, replicate 2) was 0.0348 s⁻¹ and the Off binding rate ([3]; Fig. S3m, AMP PNP, 0.20 µM FtsA, replicate 1) was 0.0493 s⁻¹. It also gave an Off binding rate ([3]; Fig. S3m, AMP PNP, 0.20 µM FtsA, replicate 2) of 0.0628 s⁻¹, an Off binding rate ([3]; Fig. S3m, AMPPNP, 0.10 µM FtsA, summary value) of 0.04 s⁻¹ and an Off binding rate ([3]; Fig. S3m, AMPPNP, 0.20 µM FtsA, summary value) of 0.06 s⁻¹. For the same substance, the Off binding rate ([3]; Fig. S3m, AMPPNP, 0.40 µM FtsA, summary value) was 0.08 s⁻¹, the Off binding rate ([3]; Fig. S3m, AMPPNP, 0.80 µM FtsA, summary value) was 0.06 s⁻¹ and the Off binding rate ([3]; Fig. S3m, ATP, 0.10 µM FtsA, summary value) was 0.05 s⁻¹. It also gave an Off binding rate ([3]; Fig. S3m, ATP, 0.20 µM FtsA, summary value) of 0.04 s⁻¹, an Off binding rate ([3]; Fig. S3m, ATP, 0.40 µM FtsA, summary value) of 0.04 s⁻¹ and an Off binding rate ([3]; Fig. S3m, ATP, 0.80 µM FtsA, summary value) of 0.04 s⁻¹. The Off binding rate ([3]; Fig. S3m, ATPgS, 0.10 µM FtsA, summary value) was 0.0254 s⁻¹, the Off binding rate ([3]; Fig. S3m, ATPgS, 0.20 µM FtsA, summary value) was 0.0233 s⁻¹ and the Off binding rate ([3]; Fig. S3m, ATPgS, 0.40 µM FtsA, summary value) was 0.0157 s⁻¹. The Off binding rate ([3]; Fig. S3m, ATPgS, 0.80 µM FtsA, summary value) was 0.0252 s⁻¹, the membrane off-rate ([3]; in the presence of FtsZ) was ~0.05 s⁻¹ and the “time bound relative to FtsZ monomers (times longer)” value ([3]; in the presence of FtsZ) was 2–4 times.
